Assay [1] relates to diabetic rats. Put plainly: Systolic blood pressure by tail plethysmography in diabetic rats (Example 3). The class given is in vivo, rat. Conditions: uninephrectomized STZ-diabetic rats; treated months 4-8; antibody 0.5 mg/kg i.p. 3x/week, lisinopril 12.5 mg/l drinking water; FIG. 2. On the procedure: Male Sprague-Dawley rats with initial body weights of 250 to 300 g were used in this study. Animal care and treatment were conducted in accordance with the U.S. […] All animals were housed in a room in which the temperature was kept constant on a 12-hour dark/12-hour light cycle and allowed free access to standard diet containing 20% protein by weight and tap water. The animals were subjected to unilateral nephrectomy under anaesthesia one week prior to the induction of diabetes to accelerate the onset of renal disease. The animals were rendered diabetic by a single intravenous (i.v.) injection of streptozotocin (STZ, Zanosar, Upjohn, Kalamazoo, Mich.; 60 mg/kg body weight). Food and water consumption, weight gain and the blood glucose levels were monitored to determine the degree of diabetes. The blood was obtained from the tip of the tails and analyzed by a modified glucose dehydrogenase method. […] Four months, after the induction of diabetes, animals were divided into seven groups of eight (unless otherwise indicated), which were treated for the next four months as follows: Animals were treated as described in Example 1. Systolic blood pressure at the end of the treatment period was recorded by tail plethysmography in conscious rats as described in Pfeffer et al.

Assay [2] deals with diabetic rats. Description: Glomerular sclerosis, renal histology in diabetic rats (Example 4). It is filed as in vivo, rat. Conditions: uninephrectomized STZ-diabetic rats; treated months 4-8; antibody 0.5 mg/kg i.p. 3x/week, lisinopril 12.5 mg/l drinking water; FIG. 3. On the procedure:
Animals were treated as described in Example 1. At the end of the study, rat kidneys were harvested and fixed with 5% buffered formalin solution, embedded in paraffin, sectioned and stained with periodic acid-Schiff (PAS) for light microscopy analyses.
Glomerular diameters were measured and the degree of matrix expansion and glomerular injury was assessed on a minimum of 100 glomeruli/section. The degree of glomerulosclerosis was scored as previously described (Raij et al. (1984) Kidney Int., 26:137-143). The percentage of glomerular sclerosis was determined by an unbiased, trained pathologist who recorded pathologic changes using a 0-4 scale (score of 0 indicates no damage; 1+ indicates changes affecting less than 25% of the samples; 2+ indicates changes affecting 25- 50% of the sample; 3+, changes affecting 50-75% of the sample; 4+ changes affecting 75-100% of the sample).

The next assay deals with TGF-β. Description: Antigen affinity and isoform specificity of anti-TGF-β antibodies. It is filed as binding. The source says:
The epitopes for 1[…] al. (1998) J. Immunol., 142:1536-1541) and CAT192 have been mapped to the C-terminal portion of mature TGF-β.

The subject of assay [3] is diabetic rats. Put plainly: Renal histology, late phase treatment (Example 9). The class given is in vivo, rat. Conditions: weeks 52 to 61, 61 weeks, mean ± SE. On the procedure:
Renal morphology was assessed as glomerulosclerosis, interstitial inflammation and tubular damage. Specifically, the removed kidneys were fixed overnight in Dubosq-Brazil, dehydrated in alcohol, and embedded in paraffin. Kidney samples were sectioned at 3-μm intervals, and the sections were stained with Masson's trichrome, hematoxylin and eosin, or periodic-acid Schiff reagent (PAS stain). […] All renal biopsies were analyzed by the same pathologist who was unaware of the nature of the experimental groups. […] Five normal rats were used as controls. Systolic blood pressure was measured every two months after diabetes induction. […] All measurements and data analysis were performed as described in Example 8.

The test system of assay [4] is diabetic rats. Description: Urinary albumin excretion, late phase treatment (Example 9). The class given is in vivo, rat. The note with it: weeks 52 to 61, at 61 weeks, mean ± SE. On the procedure:
Five normal rats were used as controls. Systolic blood pressure was measured every two months after diabetes induction. […] All measurements and data analysis were performed as described in Example 8.

For assay [5], the system named is diabetic rats. Put plainly: Serum creatinine, late phase treatment (Example 9). The class given is in vivo, rat. Conditions: weeks 52 to 61, 61 weeks, mean ± SE. On the procedure: Serum creatinine was measured at the end of the study by autoanalyzer (CX5 Beckman). […] Five normal rats were used as controls. Systolic blood pressure was measured every two months after diabetes induction. […] All measurements and data analysis were performed as described in Example 8.

The subject of assay [6] is diabetic rats. Description: Serum creatinine, early phase treatment (Example 8). It is filed as in vivo, rat. The note with it: weeks 27 to 52, 52 weeks, mean ± SE. On the procedure: Male Sprague-Dawley rats with initial body weight of 250-275 g were studied. All animals were allowed free access to standard diet and tap water. Diabetes was induced by a single intravenous injection of streptozotocin (60 mg/kg body weight). […] Blood glucose levels were monitored at least once a week in all diabetic rats and occasionally in control animals for comparison. […] Serum creatinine was measured at the end of the study by autoanalyzer (CX5 Beckman). The statistical analysis was performed using the nonparametric Kruskal-Wallis test for multiple comparisons.

Assay [7] has as its system diabetic rats. Description: Proteinuria, early phase treatment of diabetic nephropathy (Example 8). The class given is in vivo, rat. The note with it: therapy weeks 27 to 52 after STZ, 1D11 0.5 mg/kg i.p. 3x/week, enalapril 15 mg/l drinking water, FIG. 7. On the procedure:
Male Sprague-Dawley rats with initial body weight of 250-275 g were studied. All animals were allowed free access to standard diet and tap water. Diabetes was induced by a single intravenous injection of streptozotocin (60 mg/kg body weight). The presence of diabetes was confirmed 2 days later by the measurement of the tail blood glucose level with a reflectance meter. Diabetic rats received daily evening injections of insulin in doses individually adjusted to maintain a blood glucose level between 200 and 450 mg/dl. Blood glucose levels were monitored at least once a week in all diabetic rats and occasionally in control animals for comparison.
Diabetic rats were divided into 3 groups (n=6 each): group 1 received a control antibody, 13C4; groups 2 and 3 received 1D11 (0.5 mg/kg i.p. three times a week) or enalapril (15 mg/l in the drinking water), respectively from 27 to 52 weeks; group 4 was normal rats.
(§1) Urinary excretion of proteins was measured in 24 hr urine samples collected in metabolic cages at baseline, 18, 27, 36, 45, and 52 weeks by the modified Coomassie blue G dye-binding assay for proteins.
The statistical analysis was performed using the nonparametric Kruskal-Wallis test for multiple comparisons.

Assay [8] concerns diabetic rats. Description: Systolic blood pressure by tail cuff, early phase treatment (Example 8). Conditions: mean ± SE. The class given is in vivo, rat. On the procedure: (§2) Male Sprague-Dawley rats with initial body weight of 250-275 g were studied. All animals were allowed free access to standard diet and tap water. Diabetes was induced by a single intravenous injection of streptozotocin (60 mg/kg body weight). […] Blood glucose levels were monitored at least once a week in all diabetic rats and occasionally in control animals for comparison. Diabetic rats were divided into 3 groups (n=6 each): group 1 received a control antibody, 13C4; groups 2 and 3 received 1D11 (0.5 mg/kg i.p. three times a week) or enalapril (15 mg/l in the drinking water), respectively from 27 to 52 weeks; group 4 was normal rats. Systolic blood pressure was measured every two months after diabetic induction by the tail cuff method. The statistical analysis was performed using the nonparametric Kruskal-Wallis test for multiple comparisons.

In assay [9] the test system is diabetic rats. Description: Systolic blood pressure, late phase treatment (Example 9). It is filed as in vivo, rat. Conditions: mean ± SE. On the procedure:
Systolic blood pressure was measured every two months after diabetic induction by the tail cuff method. […] Five normal rats were used as controls. Systolic blood pressure was measured every two months after diabetes induction. […] All measurements and data analysis were performed as described in Example 8.

For assay [10], the system named is diabetic rats. Put plainly: Proteinuria, late phase treatment of diabetic nephropathy (Example 9). It is filed as in vivo, rat. Conditions: therapy weeks 52 to 61 after STZ, 1D11 0.5 mg/kg i.p. 3x/week, enalapril 15 mg/l drinking water, FIG. 8. On the procedure: as §1
Diabetic rats were kept as described in Example 8 and were divided into 4 groups (n=5-6 each) and given from 52 to 61 weeks after the diabetis induction the following: the irrelevant antibody 13C4; the anti-TGF-β antibody 1D11 (0.5 mg/kg i.p. three times a week); the ACE inhibitor enalapril (15 mg/l in the drinking water), or the combination of 1D11 and enalapril. Five normal rats were used as controls. Systolic blood pressure was measured every two months after diabetes induction. Urinary excretion of proteins was measured in 24 hour urine samples collected in metabolic cages at baseline, 18, 27, 36, 45, 52, and 61 weeks. All measurements and data analysis were performed as described in Example 8.

Assay [11] relates to diabetic rats. Put plainly: Urinary albumin excretion by ELISA, early phase treatment (Example 8). Conditions: weeks 27 to 52, at 52 weeks, mean ± SE. The class given is in vivo, rat. On the procedure: as §2, with “Systolic blood pressure was measured every two months after diabetic induction by the tail cuff method.” left out
Assay [12] deals with diabetic rats. Put plainly: Renal histology, early phase treatment (Example 8). The class given is in vivo, rat. Conditions: weeks 27 to 52, 52 weeks, mean ± SE. On the procedure: Male Sprague-Dawley rats with initial body weight of 250-275 g were studied. All animals were allowed free access to standard diet and tap water. Diabetes was induced by a single intravenous injection of streptozotocin (60 mg/kg body weight). […] Blood glucose levels were monitored at least once a week in all diabetic rats and occasionally in control animals for comparison. […] Renal morphology was assessed as glomerulosclerosis, interstitial inflammation and tubular damage. Specifically, the removed kidneys were fixed overnight in Dubosq-Brazil, dehydrated in alcohol, and embedded in paraffin. Kidney samples were sectioned at 3-μm intervals, and the sections were stained with Masson's trichrome, hematoxylin and eosin, or periodic-acid Schiff reagent (PAS stain). […] All renal biopsies were analyzed by the same pathologist who was unaware of the nature of the experimental groups. The statistical analysis was performed using the nonparametric Kruskal-Wallis test for multiple comparisons.

With `NCCCC[C@H](N[C@@H](CCc1ccccc1)C(=O)O)C(=O)N1CCC[C@H]1C(=O)O` [lisinopril, 1-[N2-[(S)-1-carboxy-3-phenylpropyl]-L-lysyl]-L-proline], the “systolic blood pressure at end of treatment” value in the assay with diabetic rats [1] was “limited blood pressure increase to a similar extent as 1D11”. Also, the “percentage of glomeruli with sclerotic changes (in words)” value with diabetic rats [2] was “limited the percentage of glomeruli with sclerosis to a similar degree as 1D 11”.
The Kd is the free concentration of one partner at which half of the binding sites on the other are occupied at equilibrium, for simple one-to-one binding. As for “CAT192: fully human monoclonal anti-TGF-β1 antibody generated by phage display, described in WO 00/66631”, on TGF-β, the Kd is approximately 8.4 pM and the “TGF-β isoform binding specificity” value is reported as “specifically binds TGF-β only”. Further, the “systolic blood pressure at end of treatment” value in the assay on diabetic rats [1] is reported as “displayed an anti-hypertensive effect”.
With `CCOC(=O)[C@H](CCc1ccccc1)N[C@@H](C)C(=O)N1CCC[C@H]1C(=O)O` [enalapril, 1-[N-[(S)-1-carboxy-3-phenylpropyl]-L-alanyl]-L-proline-1′-ethyl ester], the “Interstitial inflammation (score)” value is on record as 0.60 ± 0.24 score with diabetic rats [3] (graded 0 to 4+) and 0.33 ± 0.21 score in the assay on diabetic rats [12] (graded 0 to 4+). Further, the “Tubular damage (score)” value came out at 0.60 ± 0.24 score in the assay on diabetic rats [3] (graded 0 to 4+) and 0.50 ± 0.22 score in the assay with diabetic rats [12] (graded 0 to 4+). Besides, the “Glomeruli with sclerotic changes” value was determined as 4.60 ± 2.19% in the assay on diabetic rats [3] and 1.53 ± 0.32° % with diabetic rats [12]. Also, the Urinary albumin excretion is given as 30.40 ± 15.08 mg/day in the assay with diabetic rats [4] and 4.70 ± 0.83*°# mg/day in the assay on diabetic rats [11]. Moreover, the Serum creatinine with diabetic rats [5] is 0.56 ± 0.07 mg/dL; in the assay with diabetic rats [6], 0.49 ± 0.07 mg/dL. Further, the “proteinuria (in words)” value in the assay on diabetic rats [7] and in the assay with diabetic rats [10] was “similarly efficacious in reducing proteinuria” in each case. Also, the Systolic blood pressure in the assay on diabetic rats [8] (early phase study, week 27, before treatment (baseline of group)) is 148.33 ± 2.47 mmHg; in the assay on diabetic rats [8] (early phase treatment from week 27, week 36) it was 127.50 ± 2.81**°° mmHg; in the assay on diabetic rats [8] (early phase treatment from week 27, week 45), 118.33 ± 2.47°° mmHg; in the assay on diabetic rats [8] (early phase treatment from week 27, week 52), 117.50 ± 2.14°° mmHg; in the assay with diabetic rats [9] (late phase study, week 36, before therapy (given weeks 52 to 61)), 158.33 ± 2.79 mmHg; in the assay on diabetic rats [9] (late phase study, week 52, start of therapy (given weeks 52 to 61)), 165.00 ± 2.89 mmHg. The Systolic blood pressure in the assay on diabetic rats [9] (late phase treatment, weeks 52 to 61, week 61) was 135.00 ± 1.58**°° mmHg.
